B1: Subtilisin Carlsberg (protease from Bacillus licheniformis): commercially available hydrolase of the enzyme screening kit (protein, UniProt P00780 106-379, looked up)
Subtilisin Carlsberg: AQTVPYGIPLIKADKVQAQGFKGANVKVAVLDTGIQASHPDLNVVGGASFVAGEAYNTDGNGHGTHVAGTVAALDNTTGVLGVAPSVSLYAVKVLNSSGSGSYSGIVSGIEWATTNGMDVINMSLGGASGSTAMKQAVDNAYAKGVVVVAAAGNSGSSGNTNTIGYPAKYDSVIAVGAVDSNSNRASFSSVGAELEVMAPGAGVYSTYPTNTYATLNGTSMASPHVAGAAALILSKHPNLSASQVRNRLSSTATYLGSSFYYGKGLINVEAAAQ

Tests used:
[1] = Solubility of the precursor in water; assay type: physicochemical
[2] = Enzyme screening: stereoselective hydrolysis (kinetic resolution) of racemic 1-(2,6-dichloro-3-fluorophenyl)ethyl acetate; assay type: biochemical; conditions: selective for hydrolysis of (S)-acetate; 5% substrate load, 100 mM potassium phosphate buffer pH 7.2
Protocol: For example, for stereoselective hydrolysis of esters by biocatalysts, a program (Ee2 software-University of Graz) can accurately calculate the E value if the enantiomeric excess (ee) of either the alcohol or the ester at one particular enzymatic conversion are known. The ee value can be obtained, for example, from Equation 1. The [S] and [R] data can be obtained, for example, by HPLC.
The resolution of 1-(2,6-dichloro-3-fluorophenyl)ethyl acetate was carried out as follows. A 96-well plate prepared as described above was thawed for 5 minutes. 80 μL of potassium phosphate buffer (0.1 M, pH 7.2) was then dispensed into the wells using a multi-channel pipette. 10 μL of the substrate stock solution (50 mg/mL acetonitrile) was then added to each well via a multi-channel pipette, and the 96 reactions were incubated at 30° C. and 750 rpm. The reactions were sampled after 16 hours by the transfer of 25 μL of the reaction mixture into a new 96-well plate, which was then quenched by the addition of 150 μL of acetonitrile. The 96-well plate was then centrifuged, and the organic supernatant transferred from each well into another 96-well plate. Sampled reactions were then sealed using a penetrable mat cover and transferred to an HPLC system for analysis. The same plate was used to analyze the samples for both reactivity and enantioselectivity using alternating columns on the HPLC simultaneously. […]

| Molecule | solubility [1] | Reactivity [2] |
| --- | --- | --- |
| CC(=O)c1c(Cl)ccc(F)c1Cl [precursor, 1-(2,6-dichloro-3-fluorophenyl)ethanone] | < 2500 µg/mL |  |
| B1 |  | Low |

From patent US7465842B2, “Enantioselective biotransformation for preparation of protein tyrosine kinase inhibitor intermediates” (Agouron Pharmaceuticals, Inc., priority 2004, dated 2008)
